Data published in patent US5047431A, “1,1,2-triphenylbut-1-ene derivatives” (Klinge Pharma GmbH & Co., priority 1980, dated 1991).
“Also recorded” adds a separate entry of the source.

Assays:
[1] = background art; cited from earlier work
[2] = target: T1, estradiol receptor (Oryctolagus cuniculus, UniProt G1SML6); experiment: Binding affinity to the estradiol receptor (displacement of [3H]-estradiol from uterus cytosol); parameters: species or system rabbit (New Zealand rabbits); details: uterus cytosol of prepuberal rabbits, 18 hours at 4° C., 2.5×10^-9 M [3H]-estradiol; read-out: ED50% (concentration of the substance which replaces 50% [3H]-estradiol from the estradiol receptor)
T1 construct: The uterus cytosol of female, prepuberal white rabbits; from tissue; host or cells: uterus cytosol of female prepuberal New Zealand white rabbits
T1 sequence (G1SML6 1-598): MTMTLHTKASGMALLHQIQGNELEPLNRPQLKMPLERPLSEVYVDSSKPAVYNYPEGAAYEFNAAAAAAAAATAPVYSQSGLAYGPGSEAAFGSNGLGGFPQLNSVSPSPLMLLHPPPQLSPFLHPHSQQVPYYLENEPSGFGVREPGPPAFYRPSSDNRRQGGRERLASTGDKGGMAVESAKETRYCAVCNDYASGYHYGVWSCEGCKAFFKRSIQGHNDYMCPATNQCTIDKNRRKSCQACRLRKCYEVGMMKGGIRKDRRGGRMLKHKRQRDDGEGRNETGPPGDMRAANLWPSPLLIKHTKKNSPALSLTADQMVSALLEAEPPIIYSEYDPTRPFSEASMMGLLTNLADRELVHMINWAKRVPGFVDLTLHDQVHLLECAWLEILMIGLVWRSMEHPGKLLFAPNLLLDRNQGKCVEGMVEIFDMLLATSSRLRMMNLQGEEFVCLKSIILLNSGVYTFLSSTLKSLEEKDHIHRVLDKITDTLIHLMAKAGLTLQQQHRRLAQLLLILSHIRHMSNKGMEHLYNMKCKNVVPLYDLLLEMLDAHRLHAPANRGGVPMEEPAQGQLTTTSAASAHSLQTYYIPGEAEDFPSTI
Method: The determination of the binding affinity to the estradiol receptor was made using rabbit uterus cytosol.
The binding affinity to the estradiol receptor was measured according to the method of N. Devleeschouwer, G. Leclercq, A. Danguy and J.C. Heuson [Europ.
H]-estradiol from the estradiol receptor.

[3] = system: 7,12-dimethylbenz(a)anthracene-induced mammary tumor; experiment: Inhibitory effect on the 7,12-dimethylbenz(a)anthracene-induced mammary tumor; format: in vivo, female Sprague-Dawley rat (Hanover breed); details: compared with tamoxifen under the same test conditions
[4] = system: hormone-dependent mammary; details: background art; cited from earlier work

IC50 [2]	SMILES	anti-estrogenic activity (in words) [1]	inhibitory activity on the mammary tumor (in words) [3]	therapy of hormone-dependent mammary tumors (in words) [4]
	CC/C(=C(\c1ccc(O)cc1)c1ccc(OCCN(C)C)cc1)c1ccccc1 [4-hydroxytamoxifen]	antiestrogenic effect comparable to tamoxifen		
24 nM	CC/C(=C(/c1ccc(OCCN(C)C)cc1)c1cccc(O)c1)c1ccccc1 [Compound 1, (E)-1-[4'-(2-Dimethylaminoethoxy)phenyl]-1-(3-hydroxyphenyl)-2-phenylbut-1-ene]		above the activity of tamoxifen; also recorded: clearly superior to tamoxifen in the inhibitory activity on the tumor	
65 nM	CC/C(=C(/c1ccc(OCCN(CC)CC)cc1)c1cccc(O)c1)c1ccccc1 [Compound 2, (E)-1-[4'-(2-Diethylaminoethoy)phenyl]-1-(3'-hydroxyphenyl)-2-phenylbut-1-ene]			
37 nM	CC/C(=C(/c1ccc(OCCNC)cc1)c1cccc(O)c1)c1ccccc1 [Compound 3, (E)-1-(3'-Hydroxyphenyl)-1-[4'-(2-methylaminoethoxy)phenyl]-2-phenylbut-1-ene]			
	CC/C(=C(\c1ccccc1)c1ccc(OCCN(C)C)cc1)c1ccccc1 [Tamoxifen, (Z)-1-[4'-(2-dimethylaminoethoxy)phenyl]-1,2-diphenylbut-1-ene]	marked anti-estrogenic activity		already proved successful in the therapy of hormone-dependent mammary
